Results taken from ChEMBL document CHEMBL3880437, “Modulators of the prostacyclin (PGI2) receptor useful for the treatment of disorders related thereto” (2014).
Calls of active or inactive are those of the source. The rule behind the calls is not given here.

How the values were obtained:
[1] = Terminal phase half life in Sprague-Dawley rat at 1.25 mg/kg, po after 0.1 to 21 hrs by LC/MS/MS method; assay type: ADME, organism-based; conditions: in vivo, read-out: beta t1/2 (converted)
[2] = Drug level in bile-duct cannulated male Sprague-Dawley rat treated with sodium 2-(((1r,4r)-4-(((4- Chlorophenyl)(phenyl)carbamoyloxy)methyl)cyclo- hexyl)methoxy)acetate assessed as compound formation at 2 mg/kg, iv; assay type: ADME, organism-based; conditions: in vivo
Platelet = experiment: Inhibition of ADP-induced platelet aggregation in human platelet rich plasma pre-incubated for 1 min before ADP addition and measured 3 mins post ADP addition by aggregometry; assay type: functional
[3] = Drug level in bile-duct cannulated male Sprague-Dawley rat treated with sodium 2-(((1r,4r)-4-(((4- Chlorophenyl)(phenyl)carbamoyloxy)methyl)cyclo- hexyl)methoxy)acetate assessed as compound formation in bile at 2 mg/kg, iv; assay type: ADME, organism-based; conditions: in vivo
[4] = Drug level in bile-duct cannulated male Sprague-Dawley rat treated with sodium 2-(((1r,4r)-4-(((4- Chlorophenyl)(phenyl)carbamoyloxy)methyl)cyclo-hexyl)methoxy)acetate assessed as compound formation in urine at 2 mg/kg, iv; assay type: ADME, organism-based; conditions: in vivo
Rattus norvegicus [5] = experiment: Cmax in Sprague-Dawley rat assessed as 2-(((1r,4r)-4-(((4-Chlorophenyl)(phenyl)carbamoy-loxy)methyl)cyclohexyl)methoxy)acetic acid level at 1.25 mg/kg, po after 2.67 hrs by LC/MS/MS method; assay type: ADME, organism-based; design: dose 1.25 mg/kg, route oral; conditions: in vivo
[6] = Terminal phase half life in Sprague-Dawley rat assessed as 2-(((1r,4r)-4-(((4-Chlorophenyl)(phenyl)carbamoy-loxy)methyl)cyclohexyl)methoxy)acetic acid level at 1.25 mg/kg, po after 0.1 to 21 hrs by LC/MS/MS method; assay type: ADME, organism-based; conditions: in vivo
Rattus norvegicus [7] = experiment: Tmax in Sprague-Dawley rat assessed as 2-(((1r,4r)-4-(((4-Chlorophenyl)(phenyl)carbamoy-loxy)methyl)cyclohexyl)methoxy)acetic acid level at 1.25 mg/kg, po by LC/MS/MS method; assay type: ADME, organism-based; conditions: in vivo
Rattus norvegicus [8] = experiment: AUC(last) in Sprague-Dawley rat assessed as 2-(((1r,4r)-4-(((4-Chlorophenyl)(phenyl)carbamoy-loxy)methyl)cyclohexyl)methoxy)acetic acid level at 1.25 mg/kg, po after 0.1 to 21 hrs by LC/MS/MS method; assay type: ADME, organism-based; design: dose 1.25 mg/kg, route oral, time 0 - last; conditions: in vivo
Rattus norvegicus [9] = experiment: Tmax in Sprague-Dawley rat assessed as 2-(((1r,4r)-4-(((4-Chlorophenyl)(phenyl)carbamoy-loxy)methyl)cyclohexyl)methoxy)acetic acid level at 10 mg/kg, po by LC/MS/MS method; assay type: ADME, organism-based; conditions: in vivo
Rattus norvegicus [10] = experiment: Inhibition of right ventricle hypertrophic response to monocrotaline-induced pulmonary arterial hypertension assessed as ratio of right ventricular weight to left ventricle plus septum in Wistar rat at 30 mg/kg administered through oral gavage twice daily for 21 consecutive days starting 24 hrs after monocrotaline challenge; assay type: functional, organism-based
[11] = Stability of the compound in Cremophor RH40 assessed as observable compound degradation after 4 weeks in glass vial at 50 degC; assay type: physicochemical; conditions: 672 h
[12] = Stability of the compound in Imwitor 742 assessed as observable compound degradation after 4 weeks in glass vial at 50 degC; assay type: physicochemical; conditions: 672 h
[13] = Stability of the compound in TPGS 1000 assessed as observable compound degradation after 4 weeks in glass vial at 50 degC; assay type: physicochemical; conditions: 672 h
[14] = Stability of the compound in Cremophor RH40 assessed as observable API assay loss after 4 weeks in glass vial at 50 degC; assay type: physicochemical; conditions: 672 h
[15] = Stability of the compound in Imwitor 742 assessed as observable API assay loss after 4 weeks in glass vial at 50 degC; assay type: physicochemical; conditions: 672 h
[16] = Stability of the compound in TPGS 1000 assessed as observable API assay loss after 4 weeks in glass vial at 50 degC; assay type: physicochemical; conditions: 672 h
Prostacyclin receptor = Prostacyclin receptor (Homo sapiens, UniProt P43119); experiment: Agonist activity at human recombinant prostacyclin receptor expressed in CHO-K1 cells assessed as induction of cAMP accumulation incubated for 1 hr by HTRF assay; assay type: functional, cell-based
Sequence of Prostacyclin receptor (P43119 whole entry): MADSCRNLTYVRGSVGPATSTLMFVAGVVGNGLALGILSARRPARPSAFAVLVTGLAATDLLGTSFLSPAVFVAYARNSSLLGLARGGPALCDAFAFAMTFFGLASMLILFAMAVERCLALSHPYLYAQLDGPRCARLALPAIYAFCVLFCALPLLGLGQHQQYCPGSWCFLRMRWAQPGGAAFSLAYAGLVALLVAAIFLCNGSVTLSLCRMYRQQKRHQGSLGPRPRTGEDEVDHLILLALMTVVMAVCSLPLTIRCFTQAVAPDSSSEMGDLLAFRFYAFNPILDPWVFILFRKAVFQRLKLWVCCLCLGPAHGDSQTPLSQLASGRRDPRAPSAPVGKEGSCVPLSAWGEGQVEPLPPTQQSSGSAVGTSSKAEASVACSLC

[17] = Solubility of the compound in corn oil; assay type: physicochemical
[18] = Solubility of the compound in Safflower oil; assay type: physicochemical
[19] = Solubility of the compound in Labrasol; assay type: physicochemical
[20] = Solubility of the compound in Cremophor RH40; assay type: physicochemical
[21] = Solubility of the compound in Imwitor 742; assay type: physicochemical
[22] = Solubility of the compound in TPGS 1000; assay type: physicochemical
[23] = Solubility of the compound in Gelucire 44/14; assay type: physicochemical
[24] = Solubility of the compound in PEG400; assay type: physicochemical
[25] = Solubility of the compound in Lauroglycol 90; assay type: physicochemical
[26] = Solubility of the compound in PEG6000; assay type: physicochemical
[27] = Solubility of the compound in Gelucire 50/13; assay type: physicochemical

Compound | IC50 (Platelet) | EC50 (Prostacyclin receptor) | other results
O=C(COC[C@H]1CC[C@H](COC(=O)N(c2ccccc2)c2ccc(Cl)cc2)CC1)NCCS(=O)(=O)O | 10.5 to 1590 nM |  | half-life [1]: 3.51 h; Drug metabolism [2]: Metabolite_Detected; Drug metabolism [3]: Metabolite_Detected; Drug metabolism [4]: Metabolite_Notdetected; Cmax (Rattus norvegicus [5]): 214 ng/mL; beta t1/2 [6]: 3.24 h; Tmax (Rattus norvegicus [7]): 2.67 h; AUClast (Rattus norvegicus [8]): 935 ng·h/mL; Tmax (Rattus norvegicus [9]): 1.5 h
O=C(O)COC[C@H]1CC[C@H](COC(=O)N(c2ccccc2)c2ccc(Cl)cc2)CC1 [listing 1 of 2 here] |  |  | Activity (Rattus norvegicus [10]): Active
O=C(O)COC[C@H]1CC[C@H](COC(=O)N(c2ccccc2)c2ccc(Cl)cc2)CC1 [listing 2 of 2 here] | 10.5 to 1590 nM |  | Stability [11]: Stable; Stability [12]: Stable; Stability [13]: Stable; Stability [14]: Stable; Stability [15]: Stable; Stability [16]: Stable
O=C(O)COC[C@H]1CC[C@H](COC(=O)N(c2ccc(F)cc2)c2cccc(Cl)c2)CC1 | 10.5 to 1590 nM | 2.7 to 2650 nM | 
O=C(O)COC[C@H]1CC[C@H](CNC(=O)N(c2ccccc2)c2ccc(Cl)c(F)c2)CC1 | 10.5 to 1590 nM | 2.7 to 2650 nM | 
Cc1cccc(N(C(=O)NC[C@H]2CC[C@H](COCC(=O)O)CC2)c2cccc(C)c2)c1 | 10.5 to 1590 nM | 2.7 to 2650 nM | 
O=C([O-])COC[C@H]1CC[C@H](COC(=O)N(c2ccccc2)c2ccc(Cl)cc2)CC1.[Na+] |  |  | solubility [17]: < 100 µg/mL; solubility [18]: < 100 µg/mL; solubility [19]: 12980 µg/mL; solubility [20]: 7820 µg/mL; solubility [21]: 16200 µg/mL; solubility [22]: 2550 µg/mL; solubility [23]: 1610 µg/mL; solubility [24]: 4850 µg/mL; solubility [25]: 260 µg/mL; solubility [26]: < 10000 µg/mL; solubility [27]: < 10000 µg/mL
O=C(O)COC[C@H]1CC[C@H](COC(=O)N(c2cccc(F)c2)c2cc(F)cc(F)c2)CC1 | 10.5 to 1590 nM | 2.7 to 2650 nM | 
Cc1cccc(N(C(=O)OC[C@H]2CC[C@@H](COCC(=O)O)CC2)c2ccccc2)c1 | 10.5 to 1590 nM | 2.7 to 2650 nM | 
COc1ccc(N(C(=O)NC[C@H]2CC[C@H](COCC(=O)O)CC2)c2ccccc2)cc1 | 10.5 to 1590 nM | 2.7 to 2650 nM | 
COc1ccc(N(C(=O)NC[C@H]2CC[C@H](COCC(=O)O)CC2)c2ccccc2)c(C)c1 | 10.5 to 1590 nM | 2.7 to 2650 nM | 
CN(C(=O)OC[C@H]1CC[C@H](COCC(=O)O)CC1)C(c1ccccc1)c1ccccc1 | 10.5 to 1590 nM | 2.7 to 2650 nM | 

The next lines start with results.

IC50 (Platelet) | EC50 (Prostacyclin receptor) | Compound | other results
10.5 to 1590 nM |  | O=C(O)COC[C@H]1CC[C@H](COC(=O)N(c2ccccc2)c2cccc(F)c2)CC1 | Activity (Rattus norvegicus [10]): Active
10.5 to 1590 nM | 2.7 to 2650 nM | COc1cccc(N(C(=O)OC[C@H]2CC[C@H](COCC(=O)O)CC2)c2cccc(F)c2)c1 | 
10.5 to 1590 nM | 2.7 to 2650 nM | Cc1cccc(N(C(=O)NC[C@H]2CC[C@H](COCC(=O)O)CC2)c2ccccc2)c1 | 
10.5 to 1590 nM | 2.7 to 2650 nM | O=C(O)COC[C@H]1CC[C@H](COC(=O)N(c2ccccc2)c2ccc(F)nc2)CC1 | 
10.5 to 1590 nM | 2.7 to 2650 nM | O=C(O)COC[C@H]1CC[C@H](COC(=O)N(c2cccc(F)c2)c2cccc(F)c2)CC1 | 
10.5 to 1590 nM | 2.7 to 2650 nM | CN(C[C@H]1CC[C@H](COCC(=O)O)CC1)C(=O)N(C)C(c1ccccc1)c1ccccc1 | 
10.5 to 1590 nM | 2.7 to 2650 nM | CCOc1ccc(N(C(=O)OC[C@H]2CC[C@H](COCC(=O)O)CC2)c2cccc(F)c2)cc1 | 
10.5 to 1590 nM | 2.7 to 2650 nM | O=C(O)COC[C@H]1CC[C@H](COC(=O)N(c2ccccc2)c2ccccn2)CC1 | 
10.5 to 1590 nM | 2.7 to 2650 nM | O=C(O)COC[C@H]1CC[C@H](COC(=O)N(c2ccc(F)cc2)c2cccnc2)CC1 | 
10.5 to 1590 nM | 2.7 to 2650 nM | CN(C(=O)NC[C@H]1CC[C@H](COCC(=O)O)CC1)C(c1ccccc1)c1ccccc1 | 
